Data as given in a compilation of properties of binary mixtures (doi:10.1021/acs.jced.0c00618).

Experiment: xn = mol fraction of the nth substance listed
Conditions: 101 kPa, x2 = 0.3209

CCCC[n+]1ccn(C)c1.O=S(=O)([O-])C(F)(F)F + NCCO
Conditions	speed of sound [m/s]	viscosity [mPa·s]
298.15 K	1428.8	41.99
303.15 K	1417	34.4
308.15 K	1405.2	28.38
313.15 K	1393.2	23.76
318.15 K	1382.1	20.13
323.15 K	1370.6	17.25
328.15 K	1359.2	14.94
333.15 K	1348	13.05
